# Patent US20110105397A1, “METHOD FOR TREATING HEART FAILURE WITH STRESSCOPIN-LIKE PEPTIDES” (priority 2009, published 2011)
# Changes are numbered by the printed parent chain. Where a SMILES comes first, the peptide text is derived from it. Where no end group is shown, it is not given here. The star is where a group is joined. Succinimide(1-Et,3-yl) = CCN1C(=O)CC(*)C1=O
# B1: Pegylated Cys-variant stresscopin-like peptide with NES linker and PEG about 20 kDa SEQ ID NO: 69 (peptide)
# peptide: TKFTLSLDVPTNIMCLLFNIAKAKNLRAQAAANAHLMAQI
# modifications: NES-PEG (about 20 kDa) on Cys 15; C-terminal amide (-NH2)
# B2: Cys-variant stresscopin-like peptide SEQ ID NO: 17 (peptide)
# peptide: TKFTLSLDVPTNIMNCLFNIAKAKNLRAQAAANAHLMAQI-NH2
# B3: Pegylated Cys-variant stresscopin-like peptide with NES linker and PEG about 20 kDa SEQ ID NO: 70 (peptide)
# peptide: B1 peptide with C15N, L16C
# modifications: NES-PEG (about 20 kDa) on Cys 16; C-terminal amide (-NH2)
# B4: Cys-variant stresscopin-like peptide SEQ ID NO: 18 (peptide)
# peptide: TKFTLSLDVPTNIMNLCFNIAKAKNLRAQAAANAHLMAQI-NH2
# Key:
# [1] = biological target: T1, human CRHR2 (Homo sapiens, UniProt Q13324); experiment: cAMP assay, h-CRHR2 transfected SK-N-MC cells; assay type: cell-based; conditions: Table 13; for EC50: cysteine mutation, N-ethylmaleimide capping, pegylation, read-out: pA50 (converted); for Log DR [M]: h-SCP control pA50 minus test compound pA50 within the same assay batch
# T1 construct: expressed in transfected cells
# T1 sequence (Q13324 1-411): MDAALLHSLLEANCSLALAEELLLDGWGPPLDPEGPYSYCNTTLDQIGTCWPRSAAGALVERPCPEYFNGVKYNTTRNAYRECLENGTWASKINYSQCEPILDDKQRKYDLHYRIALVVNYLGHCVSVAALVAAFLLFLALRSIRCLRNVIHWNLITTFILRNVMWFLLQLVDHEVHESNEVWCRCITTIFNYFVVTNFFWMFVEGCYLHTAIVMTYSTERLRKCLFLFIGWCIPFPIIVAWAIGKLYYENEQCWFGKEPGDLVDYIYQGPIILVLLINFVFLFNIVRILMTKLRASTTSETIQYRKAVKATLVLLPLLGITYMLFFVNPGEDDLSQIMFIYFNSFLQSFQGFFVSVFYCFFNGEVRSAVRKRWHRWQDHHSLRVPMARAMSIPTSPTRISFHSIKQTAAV
# Experimental: The concentration required for 50% maximum effect (A50) was 0.4 nM.
# Human CRHR1 (accession number X72304) or CRHR2 (accession number U34587) were cloned into pcDNA3.1/Zeo expression vector and stably transfected into SK—N-MC cells by electroporation. Cells were maintained in MEM w/Earl's Salt with 10% FBS, 50 I.U. penicillin, 50 μg/ml streptomycin, 2 mM L-glutamine, 1 mM sodium pyruvate and 0.1 mM non-essential amino acids, 600 μg/ml G418. Cells were grown at 37° C. in 5% CO2
# Cells were plated in 96-well tissue culture dishes (Biocoat from BD Biosciences) overnight at 50,000 cell/well. Cells were washed with PBS then resuspended in DMEM F-12 without phenol red, containing 10 μM isobutylmethylxanthine (IBMX). Cells were incubated with the peptides at concentrations ranging from 1 pM to 10 μM for 60 min at 37° Celsius. […] Forskolin (10 μM), a direct stimulant of adenylate cyclase, was used as positive control. The assays were stopped by the addition of 0.5 M HCl and mixing by orbital rotation for 2 h at 4° Celsius.
# To assess the activity of the inventive polypeptide at the CRHR2, an intracellular cAMP measurement test using a Flash plate radioactive assay (Catalog No. Cus56088; Perkin Elmer, Mass., U.S.A.) was employed.
# Transfected SK—N-MC cells were plated in 96-well Biocoat tissue culture dishes (BD Biosciences, San Jose, Calif., U.S.A) overnight at 50,000 cell/well. Cells were first washed with PBS and then suspended with DMEM/F-12 without phenol red, containing […]. Suspended cells were transferred into a 96-well flash plate coated with scintillant fluid. Cells were incubated with peptides ranging from 1 pM to 1 μM, for 60 min, at 37° Celsius. Forskolin at 10 μM was used as positive control. After ligand stimulation, cells were lysed by the addition of 0.5M HCl and mixed by orbital rotation for 2 h at 4° Celsius in order to release intracellular cAMP into the media.
# Media containing released intracellular cAMP was transferred to a 96-well flash plate coated with scintillant fluid containing an anti-cAMP antibody. In this assay, intracellular cAMP competes with ^125I-labeled cAMP binding to the antibody. To generate a standard curve, cAMP ranging from 2.5 to 250 pmoles/ml was included in the experiment. [^125I]-cAMP was measured on a TopCount scintillation counter (Perkin Elmer, Mass., U.S.A).
# Individual agonist concentration-response curve data were fitted to the Hill equation, see formula below, using GraphPad Prism (Graphpad Software, La Jolla, Calif., U.S.A.), to provide estimates of agonist concentration needed to generate one-half maximal response (A50), and the maximal asymptote (α) and Hill slope (nH) parameters. In this equation, [A] is the agonist concentration and E is the measured effect:
# For display purposes the mean fitted parameter estimates were used to generate a single E/[A] curve shown superimposed on the mean experimental data. Potency estimates for agonists, pA50, are expressed as the negative logarithm of the midpoint of each curve and listed with their standard error of measurement (SEM). Logarithm base 10 of the agonist dose ratio (Log DR) values were calculated by subtraction of the test compound pA50 value from the corresponding h-SCP (SEQ ID NO:1) control pA50 value within the same assay batch. The SEM values of the Log DR values are given by the square root of the sum of the squared SEM values of the h-SCP (SEQ ID NO:1) control and test compound pA50 values.
# Human and rat peptides (see Table 10) were used on the stimulation of h-CRHR1 or h-CRHR2 transfected SK—N-MC cells in the cAMP flash plate assay. Peptides were incubated for 1 hr at 37° Celsius. Curves were calculated using non-linear regression sigmoidal concentration-response analysis calculation in GraphPad Prism. The so obtained pA50 values are shown in Table 11 in addition to literature values. […]
# [2] = biological target: T2, human corticotrophin releasing hormone receptor type 2 (CRHR2) (human, UniProt Q13324 1-411); experiment: cell-based or functional assay
# T2 sequence (looked up): T1 sequence (Q13324 1-411)
Molecule,EC50 [1] [nM],Log DR [M] [1],Log DR [2] [log10],pA50 [2]
"H-TKFTLSLDVPTNCMNLLFNIAKAKNLRAQAAANAHLMAQI-NH2 [SEQ ID NO: 14, TKFTLSLDVPTNCMNLLFNIAKAKNLRAQAAANAHLMAQI-NH2]",~45.7,>2,–,–
"TKFTCSLDVPTNIMNLLFNIAKAKNLRAQAAANAHLMAQI-NH2 [SEQ ID NO: 6, TKFTCSLDVPTNIMNLLFNIAKAKNLRAQAAANAHLMAQI-NH2]",0.851,0.61,–,–
"TKFTLSLDVPTNIMNLLFNIAKAKNCRAQAAANAHLMAQI-NH2 [SEQ ID NO: 27, TKFTLSLDVPTNIMNLLFNIAKAKNCRAQAAANAHLMAQI-NH2]",1.74,0.76,–,–
"CC[C@H](C)[C@H](NC(=O)[C@H](CCC(N)=O)NC(=O)[C@H](C)NC(=O)[C@H](CCSC)NC(=O)[C@H](CC(C)C)NC(=O)[C@H](Cc1c[nH]cn1)NC(=O)[C@H](C)NC(=O)[C@H](CC(N)=O)NC(=O)[C@H](C)NC(=O)[C@H](C)NC(=O)[C@H](C)NC(=O)[C@H](CCC(N)=O)NC(=O)[C@H](C)NC(=O)[C@H](CCCNC(=N)N)NC(=O)[C@H](CC(C)C)NC(=O)[C@H](CC(N)=O)NC(=O)[C@H](CCCCN)NC(=O)[C@H](C)NC(=O)[C@H](CCCCN)NC(=O)[C@H](C)NC(=O)[C@@H](NC(=O)[C@H](CSC1CC(=O)N(CC)C1=O)NC(=O)[C@H](Cc1ccccc1)NC(=O)[C@H](CC(C)C)NC(=O)[C@H](CC(C)C)NC(=O)[C@H](CC(N)=O)NC(=O)[C@H](CCSC)NC(=O)[C@@H](NC(=O)[C@H](CC(N)=O)NC(=O)[C@@H](NC(=O)[C@@H]1CCCN1C(=O)[C@@H](NC(=O)[C@H](CC(=O)O)NC(=O)[C@H](CC(C)C)NC(=O)[C@H](CO)NC(=O)[C@H](CC(C)C)NC(=O)[C@@H](NC(=O)[C@H](Cc1ccccc1)NC(=O)[C@H](CCCCN)NC(=O)[C@@H](N)[C@@H](C)O)[C@@H](C)O)C(C)C)[C@@H](C)O)[C@@H](C)CC)[C@@H](C)CC)C(N)=O (stereo partly drawn) [SEQ ID NO: 52, TKFTL SLDVP TNIMN LLFC(-NES)I AKAKN LRAQA AANAH LMAQI-NH2] (H-TKFTLSLDVPTNIMNLLFC(Succinimide(1-Et,3-yl))IAKAKNLRAQAAANAHLMAQI-NH2; N-terminus assumed)",0.38,0.05,–,–
"TKFTLSLDVPTNIMNLLFCIAKAKNLRAQAAANAHLMAQI-NH2 [SEQ ID NO: 20, TKFTLSLDVPTNIMNLLFCIAKAKNLRAQAAANAHLMAQI-NH2]",1,0.52,–,–
"H-TKFTLSLDVPTNIMNLLFNIAKAKNLRCQAAANAHLMAQI-NH2 [SEQ ID NO: 29, TKFTLSLDVPTNIMNLLFNIAKAKNLRCQAAANAHLMAQI-NH2]",0.339,0.00,–,–
"H-TKFTLSLDVPTNIMNLLCNIAKAKNLRAQAAANAHLMAQI-NH2 [SEQ ID NO: 19, TKFTLSLDVPTNIMNLLCNIAKAKNLRAQAAANAHLMAQI-NH2]",9.77,1.67,–,–
"H-TKFTLSLDVPTNIMNLLFNIAKAKNLRAQAAANCHLMAQI-NH2 [SEQ ID NO: 35, TKFTLSLDVPTNIMNLLFNIAKAKNLRAQAAANCHLMAQI-NH2]",1.17,0.70,–,–
"TKFTLSLCVPTNIMNLLFNIAKAKNLRAQAAANAHLMAQI-NH2 [SEQ ID NO: 9, TKFTLSLCVPTNIMNLLFNIAKAKNLRAQAAANAHLMAQI-NH2]",15.8,1.89,–,–
"TKCTLSLDVPTNIMNLLFNIAKAKNLRAQAAANAHLMAQI-NH2 [SEQ ID NO: 4, TKCTLSLDVPTNIMNLLFNIAKAKNLRAQAAANAHLMAQI-NH2]",2.24,1.03,–,–
"TKFTLSLDVPTNIMNCLFNIAKAKNLRAQAAANAHLMAQI-NH2 [SEQ ID NO: 17, TKFTLSLDVPTNIMNCLFNIAKAKNLRAQAAANAHLMAQI-NH2]",0.316,0.02,–,–
"TKFTLSLDCPTNIMNLLFNIAKAKNLRAQAAANAHLMAQI-NH2 [SEQ ID NO: 10, TKFTLSLDCPTNIMNLLFNIAKAKNLRAQAAANAHLMAQI-NH2]",5.25,1.30,–,–
"CC[C@H](C)[C@H](NC(=O)[C@H](CCC(N)=O)NC(=O)[C@H](C)NC(=O)[C@H](CCSC)NC(=O)[C@H](CC(C)C)NC(=O)[C@H](Cc1c[nH]cn1)NC(=O)[C@H](C)NC(=O)[C@H](CC(N)=O)NC(=O)[C@H](C)NC(=O)[C@H](C)NC(=O)[C@H](C)NC(=O)[C@H](CCC(N)=O)NC(=O)[C@H](C)NC(=O)[C@H](CCCNC(=N)N)NC(=O)[C@H](CC(C)C)NC(=O)[C@H](CC(N)=O)NC(=O)[C@H](CCCCN)NC(=O)[C@H](C)NC(=O)[C@H](CCCCN)NC(=O)[C@H](C)NC(=O)[C@@H](NC(=O)[C@H](CC(N)=O)NC(=O)[C@H](Cc1ccccc1)NC(=O)[C@H](CSC1CC(=O)N(CC)C1=O)NC(=O)[C@H](CC(C)C)NC(=O)[C@H](CC(N)=O)NC(=O)[C@H](CCSC)NC(=O)[C@@H](NC(=O)[C@H](CC(N)=O)NC(=O)[C@@H](NC(=O)[C@@H]1CCCN1C(=O)[C@@H](NC(=O)[C@H](CC(=O)O)NC(=O)[C@H](CC(C)C)NC(=O)[C@H](CO)NC(=O)[C@H](CC(C)C)NC(=O)[C@@H](NC(=O)[C@H](Cc1ccccc1)NC(=O)[C@H](CCCCN)NC(=O)[C@@H](N)[C@@H](C)O)[C@@H](C)O)C(C)C)[C@@H](C)O)[C@@H](C)CC)[C@@H](C)CC)C(N)=O (stereo partly drawn) [SEQ ID NO: 53, TKFTL SLDVP TNIMN LC(-NES)FNI AKAKN LRAQA AANAH LMAQI-NH2] (H-TKFTLSLDVPTNIMNLC(Succinimide(1-Et,3-yl))FNIAKAKNLRAQAAANAHLMAQI-NH2)",~56.2,~2.22,–,–
"H-TKFTLSLDVPTNIMNLLFNIAKAKNLRAQAAANAHLMCQI-NH2 [SEQ ID NO: 39, TKFTLSLDVPTNIMNLLFNIAKAKNLRAQAAANAHLMCQI-NH2]",0.617,0.41,–,–
B1,–,–,2.09,7.45 -log10(M)
B2,–,–,0.02,9.5 -log10(M)
B3,–,–,~2.07,~7.34 -log10(M)
B4,–,–,1.11,8.41 -log10(M)
